In a melting point compilation (Tetko et al.; mined from patent text by program, amines drawn as free bases though some values may be those of a salt):

| Compound | melting point [°C] |
| --- | --- |
| CCCC(=O)c1cnc2c(C)cccc2c1Nc1c(C)cccc1C | 100 to 101 |
| Cc1ccc(N=C(NC#N)NCc2ccc3c(c2)CN(C2CCC(=O)NC2=O)C3=O)cc1Cl (stereo not given) | 325 to 327 |
| O=C(O)Cn1c(-c2ccccc2Cl)nc2cccnc21 | 227 to 228 |
| COc1cc2cc(CO)c(CO)c(-c3ccnc(NC(C)CCCO)c3)c2cc1OC (stereo not given) | 57 to 61 |
| Cc1cc(Br)c(S(C)(=O)=O)cc1C(=O)N=C(N)N | 207 to 208 |
| Cc1sc2nc3cccc(C)c3c(=O)n2c1C | 278 to 280 |
| Cn1ccc(C(=O)c2ccccc2)c1 | 90 to 93 |
| O=[N+]([O-])c1ccc(-c2ccc(-c3ccc([N+](=O)[O-])cc3Cl)o2)c(Cl)c1 | 247 to 248 |
| Cn1nc2n(c1=O)-c1ccc(Cl)cc1C(c1ccccc1F)=CC2 | 142 to 143 |
| CCCCc1ccc(C2(O)CN3CCC2CC3)o1 (stereo not given) | 94 to 96 |
| N#CC=Cc1ccc(Cl)s1 | 41 to 43 |
| CCOC(=O)C=Cc1ccc([N+](=O)[O-])c(OC)c1 | 119 to 120 |
| COc1ccc(Cn2c(=O)ccc3c(C)nc(N4CCC[C@H]4CO)nc32)cc1Cl | 152 to 153 |
| O=C1CCC(N2C(=O)c3cccc(NC(=O)c4cccc(C(F)(F)F)c4)c3C2=O)C(=O)N1 (stereo not given) | 257 to 259 |
| CCOC(=O)CC(=O)Nc1ncc(Br)s1 | 165 to 166 |
| CCOc1c(Nc2cccc(C3C(C(=O)OC)=C(C)NC(C)=C3C(=O)OC)c2)c(=O)c1=O | 249 to 252 |
| COC(=O)Nc1nc2ccc(Sc3ccccc3)cn2c1Br | 165 to 168 |
| CC1(C)C(=O)Nc2cc(C(=O)Nc3cccc(N)c3)ccc21 | 244 to 245 |
| Cc1c(CNCC(C)(C)O)[nH]c2c(C)c(NC(=O)c3ccc(OC[C@@H]4CCCO4)cc3F)ccc12 | 151 to 152 |
| CCOC(=O)c1cc(N=Cc2ccccc2)ccc1OC(C)=O | 79 to 80 |
| COc1ccc(C(Cc2ccc(C(N)=O)cc2)c2ccccc2)cc1OC1CCCC1 (stereo not given) | 73 to 75 |
| CC(C)CCc1c(-c2ccc(S(N)(=O)=O)c(F)c2)cnn(CC(F)(F)F)c1=O | 153 to 156 |
| O=Cc1ccccc1-c1ccc(CBr)cc1 | 63 to 66 |
| O=P1(c2ccc(F)cc2)c2ccccc2CN1c1ccc(Br)cc1 (stereo not given) | 201 to 205 |
| Nc1nc(-c2cccc(F)c2)nc2nc(-c3ccco3)nn12 | > 300 |
| COC[C@H](C)N1CCc2sc(Nc3ncc(F)cn3)nc2-c2c[nH]nc21 | 249 to 251 |

| Compound | melting point [°C] |
| --- | --- |
| C/C=C/c1c(N)nc(-c2ccc(Cl)c(OC)c2F)nc1C(=O)OC | 133 to 135 |
| CCN(CC)Cc1cc(Nc2ccnc3cc(Cl)ccc23)c2c(c1O)CCCC2 | 215 to 217 |
| N=C(CF)Nc1cccc(C(N)=O)c1 | 219 to 220 |
| CCC(C)(C)N1C(=O)C2(COc3cc4c(cc32)CCO4)c2ccccc21 (stereo not given) | 128 to 129 |
| CCOC(=O)c1cnn(-c2cc(C)cc(C)c2)c1C#N | 83.5 to 84.5 |
| Cc1ccc(-c2nc(Cl)cc(N3CCN(CCO)CC3)n2)cc1 | 104 |
| COc1ccc(CN(CC(=O)OC(C)(C)C)S(=O)(=O)c2ccc3c(Cl)cnc(Cl)c3c2)cc1 | 117 to 118 |
| Nc1ncnc2c1ncn2[C@@H]1C[C@H](O)[C@@H](O)[C@H]1O (racemic) | 282 |
| CC(C)(C)NCC(O)c1cc(O)ccc1Cl (stereo not given) | 162 to 163 |
| CC1=NC(NC(=O)Nc2cccc(C)c2)C(=O)N(CC(=O)c2ccccc2C)c2c(C)cccc21 (stereo not given) | 128 to 136 |
| CNC(=N[N+](=O)[O-])NCc1ccc(Cl)nc1 | 150 to 152 |
| Cc1cccc(N2Cc3ccccc3P2(=O)C(C)C)c1 (stereo not given) | 112 to 113 |
| CN(C(=O)OC(C)(C)C)c1cccc(-c2nc(=O)c3ccccc3s2)n1 | 196 |
| CSc1ccc2c(n1)C(c1ccccc1)=[N+]([O-])Cc1nncn1-2 | 190 to 192 |
| CCCCCCCCCCCCCCCC(O)C(N)CO (stereo not given) | 81 |
| CCCCN(Cc1ccccc1)CC1CCc2c(C)cc3c(c2C1=O)CCC(=O)N3 (stereo not given) | 190 to 193 |
| Cc1cccc(C(=O)c2ccccc2F)c1N | 65.5 to 67.5 |
| CC(C)(C)OC(=O)NC1CCCCCC=CC2CC2(C(=O)NS(=O)(=O)C2CC2)NC(=O)C2CC(OC(=O)c3cccnc3)CN2C1=O (stereo not given) | 157 to 159 |
| NS(=O)(=O)c1ccc(-c2noc(-c3cnc4ccc(-c5ccc(C(F)(F)F)cc5)cn34)n2)s1 | 280 |
| O=S(=O)(NCCc1ccc(C(O)CCCO)cc1)c1ccccc1Cl (stereo not given) | 101 |
| CC(C)(C(=O)c1ccc(N2CCCCC2)cc1)N1CCOCC1 | 159 to 162 |
| CC(=O)c1nc2c(OCc3ccccc3)cccc2n1C | 102 to 104 |
| CN(C)S(=O)(=O)n1cnc(-c2ccc(Cl)cc2Cl)c1 | 169 to 171 |
| CCc1nc2c(C)cc(C)nc2n1Cc1ccc(-c2ccccc2-c2c(O)c(=O)c2=O)cc1 | 245 to 247 |
| CC(C)(C)CNc1cc(Cl)nc(Cl)n1 | 77 to 79 |

The remaining lines, values ahead:

| melting point [°C] | Compound |
| --- | --- |
| 210 | O=C(N[C@H]1CC[C@H](CCN2CCN(c3nccc4c3CCO4)CC2)CC1)c1ccc(F)cc1 |
| 122 to 124 | COc1ccc2oc(N(C=O)[C@@H](Cc3ccccn3)c3ncc(-c4ccc(N5CCOCC5)cc4)n3C)cc2c1 |
| 117 to 119 | O=C(O)C1C=CC=CC1(F)OC(Cc1c(CCNS(=O)(=O)Cc2ccc(Cl)c(Cl)c2)[nH]c2ccc(Cl)cc12)C(c1ccccc1)c1ccccc1 (stereo not given) |
| 74 to 76 | CN1CCN(c2ccc(C(=O)NCCCCCCCCCCCCO[N+](=O)[O-])cn2)CC1 |
| 200 to 201 | Oc1nc2ncnn2c(O)c1-c1c(F)cc(F)cc1F |
| 135 to 137 | CC(=O)NC(=O)OCc1nc(C(C)C)c(Sc2cc(Cl)cc(Cl)c2)n1Cc1ccncc1 |
| 98 to 100 | CCOC(=O)COn1ccncc1=O |
| 62 to 63.5 | CC(C)(C)C#CC(=O)C#CC(C)(C)C |
| 75 to 76 | CCOC(=O)COc1ccc([N+](=O)[O-])cc1 |
| 195 to 196 | CCOC(=O)c1ncc2[nH]c3cccc(CN4CCOCC4)c3c2c1COC |
| 174 to 176 | COc1ccc(-c2cc(C(=O)Nc3cccc(F)n3)c3ccccc3n2)cc1 |
| 278 | COc1ccccc1CC(=O)N1C[C@@H]2[C@H](C1)[C@@](O)(c1ccccc1OC)[C@H](O)CC2(c1ccccc1)c1ccccc1 (racemic) |
| 118 | Cc1cc([N+](=O)[O-])c(NCC(O)CO)c([N+](=O)[O-])c1 (stereo not given) |
| 140 to 141 | COc1ccc(CS[C@H]2C[C@@H](C(=O)N3CCN(C)CC3)N(C(=O)OCc3ccc([N+](=O)[O-])cc3)C2)cc1 |
| 174 to 176 | O=C(O)C(O)C1CCN(Cc2ccccc2)C1 (stereo not given) |
| 152 to 153 | Cc1ccc(NC(=N)Nc2nc(-c3ccccc3)cs2)cc1 |
| 121 to 122 | CCN(CC)C(=O)c1ccc2ccccc2c1-c1ccccc1 |
| 196 to 197 | COc1ccc(S(=O)(=O)N2CCc3cccc(-c4ccncc4)c32)cc1 |
| 108 | CN(c1cccc2cc(-c3nccs3)[nH]c12)S(=O)(=O)N1CCCC1 |
| 35 to 37 | CCCCCCCCCCCc1ccc(F)c(-c2nc(-c3ccccc3Cl)nn2C)c1 |
| 168 to 169 | Cc1cc(OCc2ccc(-c3ccc(C(F)(F)F)cc3)nc2C)ccc1SCC(=O)O |
| 122 | CCOC(=O)c1cc2sc(C)c(N(C)C(=O)OCc3ccccc3)c2[nH]1 |
| 54 to 55 | C=Cc1nc(-c2cn(C)c3ccccc23)no1 |
| 197 to 198 | Cc1ccc2c(c1)Oc1ncc([N+](=O)[O-])cc1C(=O)N2C |
| 177 | CNc1ccc(N2CCC(C)CC2)c(C(=O)c2ccc(Cl)cc2)c1 |

| melting point [°C] | Compound |
| --- | --- |
| 101 to 103 | Clc1ccc(N2CCN(CCCc3c4c(nn3-c3ccccn3)CCCC4)CC2)cc1 |
| 233 to 234 | O=C(O)C1CNC(C(=O)O)c2[nH]c3ccc(F)cc3c21 (stereo not given) |
| 348 to 349 | CCOc1c(OC)ccc2nc3[nH]cnc(=O)c3cc12 |
| 130 to 132 | CCOC(=O)CNC(=O)N(O)C1CC(c2ccc(F)cc2)C1 (stereo not given) |
| 180 to 183 | O=C(O)c1cccc(CN2C(=O)N(c3ccccc3Br)Cc3cnc(Nc4ccccc4)nc32)c1 |
| 262 to 264 | Cc1nc(NN)c2c(n1)NC(=O)CO2 |
| 242 | Cc1c(C(=O)Nc2ccc(N3CCN(C4CCOCC4)CC3)c(C#N)c2)cnn1-c1ccc(Cl)c(Cl)c1 |
| 144 to 145 | O=C(CC1CCCC1)Nc1c(C(O)(C(F)(F)F)C(F)(F)F)ccc2ccccc12 |
| 159 to 160 | COc1cc(Cl)c2c(=O)c(-c3ccccc3C)coc2c1 |
| 202 to 204 | Nc1ccn(C2OC(CO)C(O)C2O)c(=O)c1Br (stereo not given) |
| 81 to 83 | CC(C)CC1C(OC2CCCCO2)CC(=O)N1C(=O)OC(C)(C)C (stereo not given) |
| 218 to 220 | COc1ccc(-c2nn3c(SC)nnc3c3ccccc23)cc1 |
| 219 to 220 | CC(C)(C)OC(=O)N1CCN(c2ccc(Nc3ncc4ccc(N)nc4n3)cc2)CC1 |
| 229 to 234 | CCCOc1ncc(I)cc1-c1nc2c(CC)n(Cc3ccccn3)nc2c(=O)[nH]1 |
| 50 to 51 | CCC(=O)C(CCCCCCOc1ccc(OC)cc1)C(=O)CC |
| 158 to 178 | COC(=O)c1sccc1S(=O)(=O)NC(=O)Nc1nc(C)nc(C)n1 |
| 149 to 152 | O=C(CN1CCC(Cc2ccc(F)cc2)CC1)Nc1ccc2[nH]ncc2c1 |
| 169 to 171 | Cc1cc(NNC(=O)OC(C)(C)C)nnc1-c1ccc(C#N)cc1 |
| 82 to 85 | COc1ccc(-c2nc(-c3cccs3)c[nH]2)cc1Cl |
| 81 to 82 | CCOC(=O)CCc1cn(Cc2ccc(OCc3csc(-c4ccccn4)n3)cc2)cc1-c1ccccc1 |
| 136 to 139 | CC(=O)NC(Cc1ccc(C)c(C)c1)C(=O)O (racemic) |
| 102 to 103 | COc1ccc2c(c1)NC(=O)C(CCCBr)O2 (stereo not given) |
| 91 to 92 | Cc1cnc(S(=O)(=O)c2ccccc2)c(C)c1Cl |
| 125 to 127 | O=C(O)c1ccc(C#Cc2ccccc2)cc1OCc1ccccc1 |
